From ChEMBL document CHEMBL1201862, “PubChem BioAssay data set” (2004)
The source made the active and inactive calls.

Assays:
Protein skinhead-1 = biological target: T1, Protein skinhead-1 (Caenorhabditis elegans, UniProt P34707); assay type: functional
T1 sequence (P34707 whole entry): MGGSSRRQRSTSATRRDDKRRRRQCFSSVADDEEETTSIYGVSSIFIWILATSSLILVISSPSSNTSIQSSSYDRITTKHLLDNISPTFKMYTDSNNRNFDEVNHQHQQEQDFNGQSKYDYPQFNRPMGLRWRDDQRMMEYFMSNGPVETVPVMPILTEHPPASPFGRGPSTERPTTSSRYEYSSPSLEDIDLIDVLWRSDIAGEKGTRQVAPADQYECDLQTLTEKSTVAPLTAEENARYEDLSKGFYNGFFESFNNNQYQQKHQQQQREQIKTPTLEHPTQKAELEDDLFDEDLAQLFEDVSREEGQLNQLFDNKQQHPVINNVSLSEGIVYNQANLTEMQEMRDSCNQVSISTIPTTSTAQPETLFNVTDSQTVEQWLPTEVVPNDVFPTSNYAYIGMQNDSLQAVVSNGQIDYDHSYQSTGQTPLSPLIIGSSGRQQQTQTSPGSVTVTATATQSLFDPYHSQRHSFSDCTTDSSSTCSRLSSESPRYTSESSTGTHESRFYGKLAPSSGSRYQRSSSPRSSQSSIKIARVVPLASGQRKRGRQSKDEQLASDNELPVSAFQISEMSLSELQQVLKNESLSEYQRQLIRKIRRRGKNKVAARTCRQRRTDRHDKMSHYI

[1] = biological target: T2, Rac GTPase-activating protein 1 (Homo sapiens, UniProt Q9H0H5); test: blockers of MgcRacGAP-driven Rac1 GTP hydrolysis – biochemical, ADP Hunter fluorescence, primary and confirmatory, confirmation (AID 624330); assay type: functional
T2 sequence (Q9H0H5 whole entry): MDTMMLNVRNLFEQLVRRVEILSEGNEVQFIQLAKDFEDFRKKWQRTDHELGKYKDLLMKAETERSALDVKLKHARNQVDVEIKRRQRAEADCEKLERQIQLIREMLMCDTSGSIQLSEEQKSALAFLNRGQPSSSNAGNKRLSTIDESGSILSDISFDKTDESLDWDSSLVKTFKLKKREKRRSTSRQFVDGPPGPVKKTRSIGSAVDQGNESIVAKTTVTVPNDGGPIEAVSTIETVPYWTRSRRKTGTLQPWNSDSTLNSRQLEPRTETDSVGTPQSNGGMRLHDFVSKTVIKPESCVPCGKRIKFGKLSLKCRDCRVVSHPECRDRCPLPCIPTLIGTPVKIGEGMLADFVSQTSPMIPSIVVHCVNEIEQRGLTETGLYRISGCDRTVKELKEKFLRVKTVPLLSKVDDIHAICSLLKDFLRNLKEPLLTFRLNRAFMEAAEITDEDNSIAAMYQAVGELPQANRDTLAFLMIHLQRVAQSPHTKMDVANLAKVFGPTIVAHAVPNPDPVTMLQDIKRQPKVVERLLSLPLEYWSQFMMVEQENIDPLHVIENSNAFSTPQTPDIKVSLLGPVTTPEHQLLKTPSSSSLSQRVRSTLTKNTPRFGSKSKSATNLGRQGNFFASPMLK

H9c2 = test: cells; assay type: functional, cell-based; conditions: Rattus norvegicus, H9c2, Myocardium
H4 = test: Luminescence Cell-Based Dose Response HTS to Identify Activators of 5'UTR Stem-Loop Driven Prion Protein mRNA Translation in H4 Neuroglioblastoma Cells. [Related pubchem assays: 1829 (Project Summary), 1814 (Primary HTS)]; assay type: functional; conditions: Homo sapiens
[2] = HIV-1 AD8 envelope cell-cell fusion blockers – cherry-pick, dose response (AID 652062); assay type: functional, cell-based;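 further: luciferase signal from cell-cell fusion driven by HIV-1 clade B AD8 Env; potency is for inhibitors of fusion seen as a drop in luminescence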
[3] = blockers of HIV-1 ZM109 envelope-driven cell-cell fusion – HeLa effector, CEM target cells, luciferase, cherry-pick, dose response (AID 652058); assay type: functional, cell-based;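 further: luciferase signal from HIV-1 Env mediated cell-cell fusion of effector and target cells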
[4] = biological target: T3, Replicative DNA helicase DnaB (Mycobacterium tuberculosis, UniProt P9WMR3); test: DnaB intein splicing inhibitors, dose response, biochemical, cell-free fluorescence (AID 449749); assay type: functional
T3 sequence (P9WMR3 whole entry): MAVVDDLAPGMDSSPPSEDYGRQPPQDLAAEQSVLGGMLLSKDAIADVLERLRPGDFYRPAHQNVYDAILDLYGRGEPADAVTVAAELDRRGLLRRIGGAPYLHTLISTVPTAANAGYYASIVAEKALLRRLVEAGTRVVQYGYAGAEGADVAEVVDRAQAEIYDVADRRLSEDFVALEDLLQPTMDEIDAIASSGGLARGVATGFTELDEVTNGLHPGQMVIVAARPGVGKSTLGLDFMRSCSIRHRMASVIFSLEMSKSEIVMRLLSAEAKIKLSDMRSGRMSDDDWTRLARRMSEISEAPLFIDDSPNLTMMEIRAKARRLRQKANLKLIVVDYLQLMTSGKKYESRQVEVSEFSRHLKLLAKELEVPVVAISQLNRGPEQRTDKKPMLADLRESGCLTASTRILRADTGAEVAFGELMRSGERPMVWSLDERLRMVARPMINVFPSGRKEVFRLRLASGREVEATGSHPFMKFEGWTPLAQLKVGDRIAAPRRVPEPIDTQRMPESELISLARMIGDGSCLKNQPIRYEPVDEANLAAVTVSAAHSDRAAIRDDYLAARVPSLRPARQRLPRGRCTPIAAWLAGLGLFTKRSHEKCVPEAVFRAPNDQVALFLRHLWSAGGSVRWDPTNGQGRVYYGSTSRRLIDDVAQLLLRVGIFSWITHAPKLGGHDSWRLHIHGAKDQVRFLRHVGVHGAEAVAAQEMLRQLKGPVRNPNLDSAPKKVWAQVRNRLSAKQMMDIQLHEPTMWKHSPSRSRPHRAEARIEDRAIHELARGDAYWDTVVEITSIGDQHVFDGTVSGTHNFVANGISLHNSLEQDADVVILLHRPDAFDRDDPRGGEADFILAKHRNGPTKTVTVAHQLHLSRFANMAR

Protein RecA = biological target: T4, Protein RecA (Mycobacterium tuberculosis, UniProt P9WHJ3); test: Fluorescence Cell-Free Homogeneous Dose Retest to Identify Inhibitors of RecA-Intein Splicing Activity. [Related pubchem assays (depositor defined):AID2097, AID2223, AID489010, AID492950]; assay type: functional
T4 sequence (P9WHJ3 whole entry): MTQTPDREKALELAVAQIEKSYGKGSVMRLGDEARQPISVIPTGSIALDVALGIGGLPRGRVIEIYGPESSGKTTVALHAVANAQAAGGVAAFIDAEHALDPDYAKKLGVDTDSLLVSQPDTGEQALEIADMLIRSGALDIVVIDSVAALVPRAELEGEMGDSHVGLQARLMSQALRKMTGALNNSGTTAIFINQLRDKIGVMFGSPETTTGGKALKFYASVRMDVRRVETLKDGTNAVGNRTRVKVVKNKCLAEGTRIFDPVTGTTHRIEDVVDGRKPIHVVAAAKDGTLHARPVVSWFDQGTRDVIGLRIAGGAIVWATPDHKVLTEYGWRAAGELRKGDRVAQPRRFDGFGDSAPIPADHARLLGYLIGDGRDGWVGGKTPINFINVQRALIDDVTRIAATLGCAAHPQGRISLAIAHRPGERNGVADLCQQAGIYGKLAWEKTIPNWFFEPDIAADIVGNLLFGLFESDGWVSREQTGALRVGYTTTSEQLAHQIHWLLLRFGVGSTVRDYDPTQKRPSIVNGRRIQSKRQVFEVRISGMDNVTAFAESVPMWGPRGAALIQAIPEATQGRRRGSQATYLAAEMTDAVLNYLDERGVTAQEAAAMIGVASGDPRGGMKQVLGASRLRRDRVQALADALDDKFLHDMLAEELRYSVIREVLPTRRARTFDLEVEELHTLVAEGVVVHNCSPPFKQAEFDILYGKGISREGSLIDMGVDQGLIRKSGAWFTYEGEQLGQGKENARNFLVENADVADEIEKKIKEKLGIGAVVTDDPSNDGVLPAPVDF

Cytochrome P450 3A4 = Cytochrome P450 3A4 (Homo sapiens, UniProt P08684);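 further: CYP3A4 tested as one member of a cytochrome P450 panel screen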
Sequence of Cytochrome P450 3A4 (P08684 whole entry): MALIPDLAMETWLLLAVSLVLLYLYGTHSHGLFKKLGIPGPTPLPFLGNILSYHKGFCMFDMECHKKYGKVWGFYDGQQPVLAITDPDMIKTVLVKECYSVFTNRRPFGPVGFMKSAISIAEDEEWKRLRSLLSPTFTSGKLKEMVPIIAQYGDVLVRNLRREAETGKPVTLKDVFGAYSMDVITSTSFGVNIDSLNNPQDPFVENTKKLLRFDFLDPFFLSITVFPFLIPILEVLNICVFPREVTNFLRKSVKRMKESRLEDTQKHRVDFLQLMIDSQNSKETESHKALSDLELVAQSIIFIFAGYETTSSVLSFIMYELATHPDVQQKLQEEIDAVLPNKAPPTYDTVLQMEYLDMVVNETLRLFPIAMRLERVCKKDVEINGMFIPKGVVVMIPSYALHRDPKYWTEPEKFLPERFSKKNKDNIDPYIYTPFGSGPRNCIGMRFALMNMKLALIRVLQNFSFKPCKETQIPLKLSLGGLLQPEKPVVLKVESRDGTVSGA

Cytochrome P450 2C9 = Cytochrome P450 2C9 (Homo sapiens, UniProt P11712)
Sequence of Cytochrome P450 2C9 (P11712 whole entry): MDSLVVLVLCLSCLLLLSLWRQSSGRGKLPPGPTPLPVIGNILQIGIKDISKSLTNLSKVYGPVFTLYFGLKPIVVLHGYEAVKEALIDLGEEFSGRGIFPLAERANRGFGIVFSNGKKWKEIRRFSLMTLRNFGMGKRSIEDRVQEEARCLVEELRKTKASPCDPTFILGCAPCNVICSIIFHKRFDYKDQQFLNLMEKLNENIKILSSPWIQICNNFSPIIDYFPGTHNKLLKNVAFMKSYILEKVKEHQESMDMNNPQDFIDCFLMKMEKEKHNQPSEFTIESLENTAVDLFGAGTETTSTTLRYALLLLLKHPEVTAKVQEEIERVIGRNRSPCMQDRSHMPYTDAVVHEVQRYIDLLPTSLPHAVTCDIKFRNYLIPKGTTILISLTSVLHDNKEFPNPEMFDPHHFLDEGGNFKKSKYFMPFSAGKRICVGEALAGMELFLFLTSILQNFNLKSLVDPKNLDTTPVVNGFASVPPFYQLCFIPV

## Fc1ccc(-c2csc(Nc3ccccn3)n2)c(F)c1
Protein skinhead-1
  IC50: > 100 µM (inactive)

## CCOC(=O)C1CCN(Cc2c[nH]nc2-c2ccccc2)CC1
[1]
  IC50: 131 µM (active)

## Oc1nnc(-c2cccs2)c2ccccc12
H9c2
  IC50: 19.4 µM (active)

## COc1ccc(S(=O)(=O)N2CC(O)CC2C(=O)OCc2nc(O)c3c(C)c(C)sc3n2)cc1 (stereo unspecified)
H9c2
  IC50: 31 µM (inactive)

## N#C/C(=C\c1ccc(N2CCCCC2)o1)C(=O)Nc1cccc(Br)c1
H4
  EC50: 0.102 µM (active)

## COC(=O)c1ccc(CSc2ccc3nnc(-c4cccc(F)c4)n3n2)o1
H9c2
  IC50: > 79 µM (inactive)

## CCN(CC)CCN1C(=O)C(O)=C(C(=O)c2cnn(-c3ccccc3)c2C)C1c1ccc(C)o1 (stereo unspecified)
Protein skinhead-1
  IC50: > 100 µM (inactive)

## CCOC(=O)C1CCCN(Cc2nc(N)nc(Nc3ccc(OC)cc3)n2)C1 (stereo unspecified)
[2]
  AC50: 27 µM (active)
[3]
  AC50: 4.93 µM (active)

## O=[N+]([O-])c1ccc(Oc2ccc(F)cc2)c2ccncc12
Protein skinhead-1
  IC50: > 100 µM (inactive)
[4]
  AC50: > 380 µM (inactive)
Protein RecA
  EC50: 1.4 µM (active)

## COc1ccccc1-c1c(C(F)(F)F)oc2cc(OC(=O)c3cccc([N+](=O)[O-])c3C)ccc2c1=O
Protein skinhead-1
  IC50: > 100 µM (inactive)
Cytochrome P450 3A4
  AC50: 12.6 µM (inconclusive)
Cytochrome P450 2C9
  AC50: 0.447 µM (inconclusive)

## CCn1c(C)c(C2=CCN(S(=O)(=O)c3ccccc3)CC2)c2ccccc21
Protein skinhead-1
  IC50: > 100 µM (inactive)

## COc1ccc(NC(=O)COc2cccc3c2CCNC3=O)cc1
H9c2
  IC50: > 79 µM (inactive)

## CCCCCCOC(=O)c1ccc(OC(=O)c2cccnc2)cc1
[4]
  AC50: 3.69 µM (active)
Protein RecA
  EC50: 3.58 µM (active)

## Cc1ccc(C)c(N/C([S-])=C(/C(=O)c2ccc(OC(F)F)cc2)[n+]2ccccc2)c1
[4]
  AC50: 36.6 µM (active)
Protein RecA
  EC50: 11.5 µM (active)

## Cc1cc(C)n2c(SCc3c(C)noc3C)nnc2n1
Protein skinhead-1
  IC50: > 100 µM (inactive)

## O=C(NCC(=O)N(Cc1cccs1)C(C(=O)NC1CCCCC1)c1ccncc1)c1ccco1 (stereo unspecified)
Protein skinhead-1
  IC50: > 100 µM (inactive)

## COc1ccc(NC2CCCN(C(=O)CSc3ccccc3)C2)cc1OC (stereo unspecified)
[1]
  IC50: 60 µM (active)

## COc1ccc(NC(=O)/C(C#N)=C/c2ncc([N+](=O)[O-])n2C)c(OC)c1
[4]
  AC50: 67.5 µM (active)
Protein RecA
  EC50: 15.6 µM (active)

## CCCNCc1cc(Cl)c(OCC)c(Cl)c1
Protein skinhead-1
  IC50: > 100 µM (inactive)

## c1ccc(OCc2nc(-c3cccs3)no2)cc1
Protein skinhead-1
  IC50: 31.5 µM (active)

## CCOc1cccc2cc(C(=O)N3CCc4ccccc43)c(=O)oc12
Protein skinhead-1
  IC50: > 100 µM (inactive)

## COCCCn1c(SCC(=O)NC(C)C)nnc1-c1ccccc1
Protein skinhead-1
  IC50: > 100 µM (inactive)

## Cc1[nH][nH]c(=O)c1C(c1ccc(N(C)C)c(Br)c1)c1c(C)[nH][nH]c1=O
[4]
  AC50: 0.467 µM (active)
Protein RecA
  EC50: 0.274 µM (active)

## Cn1c(=O)[nH]c(=O)c2c1nc(NCCc1ccccc1)n2CC(O)COc1ccccc1 (stereo unspecified)
H9c2
  IC50: > 79 µM (inactive)

## Cc1ccc(C(=O)Nc2cccc(C(F)(F)F)c2)cc1NC(=O)c1csc(-c2ccncc2)n1
H9c2
  IC50: > 79 µM (inactive)

## O=C(c1c[nH]c(C(=O)C(Cl)(Cl)Cl)c1)c1ccccc1Br
[4]
  AC50: 6.31 µM (active)
Protein RecA
  EC50: 6.33 µM (active)

## COc1ccc2nc(O)c(CNC3CCCCC3)cc2c1
H9c2
  IC50: 46.3 µM (inactive)

## Clc1ccc(-c2nnsc2SCc2ccccc2)cc1
Protein skinhead-1
  IC50: > 100 µM (inactive)

## CC(C)(C)OC(=O)CNC(=O)c1[nH]cnc1C(=O)Nc1ccc(CNC(=O)OC(C)(C)C)cc1
H9c2
  IC50: > 79 µM (inactive)

## C[C@H](CO)N1C[C@H](C)[C@@H](CN(C)S(=O)(=O)c2cccs2)Oc2ccc(NC(=O)Nc3ccccc3)cc2C1=O
H9c2
  IC50: 11.9 µM (active)

## COc1ccc(C=NNC(=O)c2cc(C)oc2C)cc1O
[1]
  IC50: 107 µM (active)

## Nc1nc(N)c2[nH]c(S)nc2n1
[1]
  IC50: 163 µM (active)

## Cc1cccc(NC(=O)c2[nH]cnc2C(=O)NCCCCNC(=O)c2nc[nH]c2C(=O)Nc2cccc(C)c2)c1
H9c2
  IC50: > 79 µM (inactive)

## Cc1nn(Cc2ccc(C(=O)N3CCN(C(=O)c4ccco4)CC3)o2)c(C)c1[N+](=O)[O-]
H9c2
  IC50: 21.9 µM (active)

## O=C(Nc1cc(C(F)(F)F)ccc1N1CCCCC1)C1=COCCO1
Protein skinhead-1
  IC50: > 100 µM (inactive)

## C/C(CC(=O)Nc1cc(C)ccn1)=N\NC(=O)c1ccccc1C
[4]
  AC50: 26.8 µM (active)
Protein RecA
  EC50: 6.24 µM (active)

## CC(C)NC(=O)Nc1ccc2c(c1)C(=O)N([C@@H](C)CO)C[C@H](C)[C@H](CN(C)C(=O)Nc1ccc(F)cc1)O2
[2]
  AC50: 58.4 µM (active)
[3]
  AC50: 22.4 µM (active)

## O=C(CCCCCNC(=O)c1ccccc1)N/N=C/c1ccc(O)cc1O
[1]
  IC50: 69.9 µM (active)

## O=C1CC(Nc2ccc(N3CCOCC3)cc2)C(=O)N1Cc1ccccc1 (stereo unspecified)
[1]
  IC50: 140 µM (active)
